Results taken from the supplement of paper PMC8617591.

What was measured:
[1] = test system: Mycobacterium tuberculosis Erdman (autoluminescent); experiment: total FIC50 (Loewe) at 50% inhibition, three-drug combination (log2); higher = more antagonistic
Description: (§1)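 DiaMOND equipotent three-drug combination dose responses (10 doses, 1.5- or 2-fold spacing, centred on IC90) against autoluminescent M. tuberculosis Erdman in 8 in vitro models. Read-out is OD600, or luminescence for the intracellular and dormancy models, normalised to untreated wells. Hill-fit Einf, AUC25 and GRinf are potency metrics; FIC50 and FIC90 are total Loewe fractional inhibitory concentrations as log2 (negative = synergy).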

[2] = test system: Mycobacterium tuberculosis Erdman (autoluminescent); experiment: total FIC90 (Loewe) at 90% inhibition, three-drug combination (log2); higher = more antagonistic
Description: as §1

[3] = test system: Mycobacterium tuberculosis Erdman (autoluminescent); experiment: AUC25, normalised area under dose response up to IC25 (three-drug combination) (fraction (0-1)); higher = more potent at low dose
Description: as §1

[4] = test system: Mycobacterium tuberculosis Erdman (autoluminescent); experiment: GRinf, maximum normalised growth rate inhibition (three-drug combination) (unitless (-1 to 1)); higher = less effect (negative = killing)
Description: as §1

[5] = test system: Mycobacterium tuberculosis Erdman (autoluminescent); experiment: Einf, fitted maximum growth inhibition of three-drug combination (fraction); higher = stronger maximal inhibition
Description: as §1

CC[C@@H](CO)NCCN[C@@H](CC)CO [ethambutol] + COc1c(N2C[C@@H]3CCCN[C@@H]3C2)c(F)cc2c(=O)c(C(=O)O)cn(C3CC3)c12 [moxifloxacin] + CO[C@H]1/C=C/O[C@@]2(C)Oc3c(C)c(O)c4c(O)c(c(/C=N/N5CCN(C)CC5)c(O)c4c3C2=O)NC(=O)/C(C)=C\C=C\[C@H](C)[C@H](O)[C@@H](C)[C@@H](O)[C@@H](C)[C@H](OC(C)=O)[C@@H]1C [rifampicin]
Details	AUC25, [3]	Einf, [5]	GRinf, [4]	total FIC50, [1]	total FIC90, [2]
in vitro model: acidic pH 5.7, time point: constant (~7 days, model-specific)	0.0728	0.842	0.00792	0.27	–
in vitro model: acidic pH 5.7, time point: terminal (~4-5 doublings, model-specific)	0.033	0.969	-0.0608	0.591	-0.139
in vitro model: intracellular J774, time point: constant = terminal	–	0.965	-0.353	–	-1.82

Details	AUC25, [3]	Einf, [5]	GRinf, [4]	total FIC50, [1]	total FIC90, [2]
in vitro model: butyrate, time point: constant (~7 days, model-specific)	0.0797	0.924	-0.0218	0.419	–
in vitro model: butyrate, time point: terminal (~4-5 doublings, model-specific)	0.0647	0.966	-0.0188	0.334	-0.296
in vitro model: cholesterol 0.05 mM, time point: constant (~7 days, model-specific)	0.104	0.602	0.0718	0.0825	–
in vitro model: cholesterol 0.05 mM, time point: terminal (~4-5 doublings, model-specific)	0.082	0.876	0.198	0.896	–
in vitro model: cholesterol-high 0.2 mM, time point: constant (~7 days, model-specific)	0.0425	0.937	-0.354	1.01	–
in vitro model: cholesterol-high 0.2 mM, time point: terminal (~4-5 doublings, model-specific)	0.0582	1	-0.753	1.13	1.05
in vitro model: dormancy (butyrate + nitrate, low O2), time point: constant (~7 days, model-specific)	0.0959	0.838	0.346	-0.35	–
in vitro model: dormancy (butyrate + nitrate, low O2), time point: terminal (~4-5 doublings, model-specific)	0.0588	0.985	-0.0843	0.268	-0.495
in vitro model: standard 7H9 glycerol, time point: constant = terminal	0.0299	0.861	0.231	0.166	–
in vitro model: valerate, time point: constant (~7 days, model-specific)	0.0379	0.867	0.0142	0.576	–
in vitro model: valerate, time point: terminal (~4-5 doublings, model-specific)	0.0266	0.93	0.0403	0.645	-0.611

CC[C@@H](CO)NCCN[C@@H](CC)CO [ethambutol] + COc1c(N2C[C@@H]3CCCN[C@@H]3C2)c(F)cc2c(=O)c(C(=O)O)cn(C3CC3)c12 [moxifloxacin] + NC(=O)c1cnccn1 [pyrazinamide]
Details	AUC25, [3]	Einf, [5]	GRinf, [4]	total FIC50, [1]	total FIC90, [2]
in vitro model: acidic pH 5.7, time point: constant (~7 days, model-specific)	0.106	0.781	-0.213	0.429	–
in vitro model: acidic pH 5.7, time point: terminal (~4-5 doublings, model-specific)	0.0713	0.959	-0.294	0.98	0.0827
in vitro model: intracellular J774, time point: constant = terminal	–	0.98	-0.497	–	-0.596

Details	AUC25, [3]	Einf, [5]	GRinf, [4]	total FIC50, [1]	total FIC90, [2]
in vitro model: butyrate, time point: constant (~7 days, model-specific)	0.108	0.926	0.001	0.345	–
in vitro model: butyrate, time point: terminal (~4-5 doublings, model-specific)	0.0814	0.967	-0.00667	0.477	0.431
in vitro model: cholesterol 0.05 mM, time point: constant (~7 days, model-specific)	0.12	0.683	-0.365	–	–
in vitro model: cholesterol 0.05 mM, time point: terminal (~4-5 doublings, model-specific)	0.135	0.8	-0.21	0.703	–
in vitro model: cholesterol-high 0.2 mM, time point: constant (~7 days, model-specific)	0.0703	0.962	-0.373	1.02	–
in vitro model: cholesterol-high 0.2 mM, time point: terminal (~4-5 doublings, model-specific)	0.0603	1	-0.587	1.29	1.24
in vitro model: dormancy (butyrate + nitrate, low O2), time point: constant (~7 days, model-specific)	0.0861	0.816	0.46	-0.23	–
in vitro model: dormancy (butyrate + nitrate, low O2), time point: terminal (~4-5 doublings, model-specific)	0.0923	0.979	-0.107	0.189	-0.144
in vitro model: standard 7H9 glycerol, time point: constant = terminal	0.0574	0.966	-0.145	–	–
in vitro model: valerate, time point: constant (~7 days, model-specific)	0.0872	0.884	-0.169	0.599	–
in vitro model: valerate, time point: terminal (~4-5 doublings, model-specific)	0.0506	0.945	-0.037	0.696	-0.119
